Measured values published in patent publication US20030130249A1, “Therapeutic use of estrogen receptor (ER)beta-selective agonists for triggering somatotropic, organotropic and anticatabolic effects (somatotropic therapy)” (Schering AG, priority 2001, published 2003).

Legend:
Type in all cases: in vivo, rat
[1] = system: uterus of adult rats that have undergone ovariectomies; experiment: Uterotropic action in adult ovariectomized rats (FIG. 1); conditions: for dose giving increase in uterus weight ("standard" estrogenic activity): treatment day 1-day 3, autopsy day 4
Method: The substances that are to be used according to the invention have very little action in terms of “standard estrogens.” Corresponding estrogenic properties can be examined in the rats that have undergone ovariectomy. In the case of parenteral administration, 17β-estradiol even at a dose of 0.1 μg results in an increase in uterus weight. […] These substances have a correspondingly small action on the parameters of hepatic estrogeneity, for example the increase of the angiotensinogen in the blood. To examine the action of the ERβ-selective agonists in the context according to the invention, their estrogenic action on the genital tract, liver functions, somatotropic factors and on the secretion of gonadotropins was examined in comparison to estradiol in adult rats that have undergone ovariectomies. Determination of the uterotropic action of an ERα- or ERβ-selective agonist (agon) in comparison to estradnol (E2) Study of adult rats that have undergone ovariectomies 14 days after the ovariectomies, treatment day 1-day 3, autopsy day 4, subcutaneous administration in 0.2 ml of vehicle.

[2] = system: uterus and vagina of ovary-intact, sexually immature rats; experiment: Effects on uterus and vagina in ovary-intact, sexually immature rats (FIG. 2); conditions: 7 days subcutaneous
Text: The action on the somatotropic functions, gonad functions and the genital tract was studied in infant, gonad-intact, male and female rats. Effects of ERβ-agon or ERβ-selective agonists (agon) (E2) on the uterus and vagina in ovary-intact, sexually immature rats in comparison to estradiol. Treatment of the young animals after weaning over 7 days (day 1-day 7, autopsy day 8, subcutaneous injection) in two tests with different dose ranges.

[3] = system: gonads of male and female, sexually immature rats; experiment: Effects on gonads and prostate of sexually immature rats (FIG. 3)
Method: ERβ-selective properties can be studied in the case of female and male rats that are not sexually mature. […] In the case of a parenteral dose of 1 μg/animal/day, estradiol results in a complete inhibition of testicular growth. […] The action on the somatotropic functions, gonad functions and the genital tract was studied in infant, gonad-intact, male and female rats. Effects of ERβ-agon or ERβ-selective agonists (agon) (E2) on gonads of male and female, sexually immature rats in comparison to estradiol. Treatment of the young animals after weaning over 7 days (day 1-day 7, autopsy day 8, subcutaneous injection).

[4] = system: IGF-I in the plasma from sexually immature rats with intact ovaries; experiment: IGF-I in the plasma of sexually immature rats (FIG. 4); conditions: 7 days subcutaneous, two tests with different dose ranges
Text: (§1) Effects of ERα- or ERβ-selective agonists (agon) on IGF-I in the plasma from sexually immature rats with intact ovaries in comparison to estradiol (E2). Treatment of the young animals after weaning over 7 days (day 1-day 7, autopsy day 8; subcutaneous injection) in two tests with different dose ranges.

[5] = system: cholesterol fractions in the plasma from sexually immature rats with intact ovaries; experiment: Cholesterol fractions in the plasma of sexually immature rats (FIG. 5); conditions: 7 days subcutaneous
Text: as §1, with “the cholesterol fractions” for “IGF-I”, “8,” for “8;”

[6] = system: adrenal glands and thymus of sexually immature rats with intact ovaries; experiment: Organ weights of adrenal glands and thymus of sexually immature rats (FIG. 6); conditions: 7 days subcutaneous
Text: Effects of ERα- or ERβ-selective agonists (agon) on the development of the organ weights of the adrenal glands and the thymus of sexually immature rats with intact ovaries in comparison to estradiol (E2). Treatment of young animals after weaning over 7 days (day 1-day, 7, autopsy day 8, subcutaneous injection).

[7] = system: body growth of sexually immature rats whose ovaries are intact; experiment: Body growth of sexually immature rats (FIG. 7); conditions: immature rats with intact ovaries, 7 days subcutaneous
Text: Effects of ERα- or ERβ-selective agonists (agon) on the body growth of sexually immature rats whose ovaries are intact in comparison to estradiol (E2). Treatment of the young animals after weaning over 7 days (day 1-day 7, autopsy day 8, subcutaneous injection) in two tests with different dose ranges.

[8] = Plasma levels after one-time oral or subcutaneous administration to ovariectomized rats, RIA (FIG. 8); conditions: one-time oral 1.0 mg or subcutaneous graduated dosages
Method: Plasma levels of the ERβ-selective agonist after a one-time oral or parenteral (subcutaneous injection) administration to ovariectomized rats, determinations 0.5; 1; 3; 6; 24 hours after oral administration of 1.0 mg (left) or 1; 2; 4; 6; 24 hours after subcutaneous administration of graduated dosages. Immunological determination by means of LCMS-validated Radio Immuno Assay (RIA).

C=C[C@@]12CCc3cc(O)ccc3[C@H]1CC[C@@]1(C)[C@H]2CC[C@@H]1O [ERβ-agon, 8β-vinyl-1,3,5(10)-estratriene-3,17β-diol]
dose relative to estradiol for comparable uterotropic effect ([1]; parenteral, versus 0.1 μg of E2): 1000 fold | dose giving increase in uterus weight ("standard" estrogenic activity) ([1]; subcutaneous): 100 µg | weight development of the uterus and vagina ([2]; autopsy day 8): considerable effects on the weight development of the uterus and vagina in extremely low dosages | effects on uterus and vagina weight compared with ERα-agon and E2 ([2]; lowest tested dose): exceed those of ERα-agon, and E2 is statistically significant | growth of the prostate ([3]; 7 days subcutaneous): acceleration of the growth of the prostate | testicular growth ([3]; 7 days subcutaneous, autopsy day 8): stimulates testicular growth beyond the normal size, which is statistically significant | testicular growth at high doses ([3]; high doses, 7 days subcutaneous): inhibition of the testicular growth | IGF-I in the plasma [4]: Statistically significant increase of the IGF-I | HDL-cholesterol fraction in the plasma ([5]; broad dose range): increase of the HDL-cholesterol fraction | total cholesterol in the plasma ([5]; broad dose range): elevated plasma levels of the total cholesterol | adrenal gland weight [6]: increase of adrenal gland weight | thymus weight [6]: increase of adrenal gland weight and thymus weight | body growth ([7]; two tests with different dose ranges): accelerated growth of the animals via a broad dose range | oral bioavailability (plasma levels) [8]: orally readily bioavailable

C[C@]12CC[C@@H]3c4ccc(O)cc4CC[C@H]3[C@@H]1C[C@H]1OC(=O)C[C@]12O [ERα-agon, 3,17β-dihydroxy-19-nor-17α-pregna-1,3,5(10)-triene-21,16α-lactone, reference compound]
induction of uterus growth ([1]; subcutaneous, compared with ERβ-agon): induce uterus growth in the case of much lower dosage than the ERβ-agon | IGF-I in the plasma [4]: No comparable effects | HDL-cholesterol fraction in the plasma at high doses ([5]; high doses): drop the HDL-cholesterol fraction | total cholesterol in the plasma at high doses ([5]; high doses): drop the HDL-cholesterol fraction and the total cholesterol | adrenal gland weight [6]: less pronounced positive effects | thymus weight [6]: less pronounced positive effects | thymus weight at higher dosages ([6]; higher dosages): reduction of the thymus weight | body growth (weight increase) at higher dosages ([7]; higher dosages): considerable reduction of the weight increase

C[C@]12CC[C@@H]3c4ccc(O)cc4CC[C@H]3[C@@H]1CC[C@@H]2O [E2, estradiol, reference compound]
dose giving increase in uterus weight ("standard" estrogenic activity) ([1]; subcutaneous): 0.1 µg | dose giving complete inhibition of testicular growth ([3]; parenteral): 1 μg/animal/day
